Data from article PMC9378861, “Formation and metabolism of 6-(1-acetol)-8-(1-acetol)-rutin in foods and in vivo, and their cytotoxicity” (Frontiers in Nutrition, 2022).
Values joined by “and” are separate entries in the source; they are usually repeats but may differ in a detail not shown here. Equal entries are not always repeated.

Assays:
[1] = Rutin-MGO adducts in tissues, urine and feces of rats 24 h after oral rutin; format: in vivo, Sprague–Dawley rats; conditions: for Concentration in feces: feces collected within 24 h after rutin 100 mg/kg BW oral; for Concentration in urine: urine collected within 24 h after rutin 100 mg/kg BW oral
Description: (§1) The animals were treated as described in the study by Chen et al. ([22]). In brief, five 7 weeks old male Sprague–Dawley rats (190–220 g) were exposed to rutin (100 mg/kg BW) by oral gavage after fasting for 16 h. The plasma samples were collected at 0.25, 0.5, 1, 2, 4, 6, 8, 10, and 24 h after the administration, and stored under −80°C until analysis. The feces and urine were collected with the metabolic cages throughout the 24 h period. At 24 h, the rats were sacrificed after anesthetization, and the tissues including stomach, intestine (divided into duodenum, jejunum, ileum, caecum, and colon), heart, liver, kidney, and brain were taken and frozen immediately in liquid nitrogen and transferred to a deep freezer (−80°C) for storage before analysis. The procedures of the animal study followed the protocol by the Institutional Animal Care and Use Committee of the Laboratory Animal Center of Jinan University.
(§2) The plasma samples were treated as described by Chen et al. ([22]). About half gram of feces and tissue samples were weight accurately, and homogenized with 2 mL saline on an ice-bath. The homogenates were transferred to a centrifuge tube, added with 1 mL PBS (pH 5.0, 0.05 M) and 100 μL ascorbic acid (150 mg/mL), and extracted with 3 mL of methanol twice. The supernatants were combined after centrifugation at 13,000 × g under 4 °C for 10 min, evaporated to dryness, re-dissolved in 500 μL of 50% aqueous methanol containing 0.1% formic acid (v/v), and filtered through a 0.22 μm membrane for HPLC-MS/MS analysis. The adducts in 200 μL of urine were extracted twice with 1 mL methanol. The supernatants were collected after centrifugation at 13,000 × g under 4°C for 10 min, and evaporated to dryness. The residues were dissolved in 200 μL of 50% aqueous methanol containing 0.1% formic acid (v/v), and filtered through a 0.22 μm membrane for HPLC-MS/MS analysis. A sample of 1 μL was injected into an Agilent Technologies 1,260 Infinity HPLC (Agilent Technologies, CA, USA) interfaced to an AB 4500 Q-Trap mass spectrometer (AB Sciex, MA, USA) in the negative mode for quantification of adducts A and B, respectively. The eluting programs for HPLC analysis, and the operation conditions of mass spectrometer refers to those established by Chen et al. ([22]). […] Moreover, as the information on the occurrence levels of 6-(1,2-propanedione)-8-(1-acetol)-rutin, 6-(1-acetol)-8-(1,2-propanedione)-rutin, and 6-(1,2-propanedione)-8-(1,2-propanedione)-rutin discovered in the last study was still missing, the concentration of these oxidized rutin-MGO adducts in various tissues and urine and feces were also determined in this study. The qualification and quantification fragmentation transitions of these adducts refers to those provided previously ([22]).

[2] = rats, 15 min after administration of rutin; cited from earlier work
[3] = Plasma concentration of rutin-MGO adducts in rats after oral rutin (HPLC-MS/MS, MRM); format: in vivo, Sprague–Dawley rats
Description: as §1, §2

[4] = cited from earlier work; for Elimination rate on MGO (MGO scavenged): incubated with MGO at 37°C for 24 h
[5] = test system: human gastric epithelial cell line (GES-1); assay: Cytotoxicity by MTT assay, GES-1; format: cell-based; conditions: 24 h
[6] = test system: human colon carcinoma cell line (Caco-2); assay: Cytotoxicity by MTT assay, Caco-2; format: cell-based; conditions: Caco-2, 1 mM, 24 h
[7] = test system: human umbilical vein endothelial (HUVEC) cell; assay: Cytotoxicity by MTT assay, HUVEC; format: cell-based; conditions: 1 mM, 24 h
AGEs = conditions: cited from earlier work
[8] = set-up: method as in PMID 19916501; conditions: anesthetized, mesenteric lymphatic/duodenum-cannulated rat model; cited from earlier work
[9] = 24 h after rutin 100 mg/kg BW oral
[10] = rutin 100 mg/kg BW oral gavage, time point 0.25 h
[11] = rutin 100 mg/kg BW oral gavage, time point 1.00 h
[12] = rutin 100 mg/kg BW oral gavage, time point 2.00 h

CC(=O)C(=O)c1c(O)c(C(=O)C(C)=O)c2oc(-c3ccc(O)c(O)c3)c(O[C@@H]3O[C@H](CO[C@@H]4O[C@@H](C)[C@H](O)[C@@H](O)[C@H]4O)[C@@H](O)[C@H](O)[C@H]3O)c(=O)c2c1O [6-(1,2-propanedione)-8-(1,2-propanedione)-rutin]
Concentration in brain [1, 9]: 0.12 ± 0.02 µg/kg
Concentration in caecum [1, 9]: trace
Concentration in heart [1, 9]: 0.14 ± 0.09 µg/kg
Concentration in ileum [1, 9]: trace
Concentration in kidney [1, 9]: 0.16 ± 0.04 µg/kg
Concentration in liver [1, 9]: 0.09 µg/kg and 0.09 ± 0.01 µg/kg
Concentration in stomach [1, 9]: 0.10 µg/kg and 0.10 ± 0.01 µg/kg
Concentration in feces [1]: 0.26 ± 0.18 µg/kg
Content in feces, folds lower than 6-(1,2-propanedione)-8-(1-acetol)-rutin and 6-(1-acetol)-8-(1,2-propanedione)-rutin ([1]; feces within 24 h after rutin 100 mg/kg BW oral): 6–9 folds
Concentration in urine [1]: 0.10 ng/mL and 0.10 ± 0.01 ng/mL
Plasma concentration of oxidized rutin-MGO adducts [2]: 1.02 ng/mL

CC(=O)C(=O)c1c(O)c(C(O)C(C)=O)c2oc(-c3ccc(O)c(O)c3)c(OC3OC(COC4OC(C)C(O)C(O)C4O)C(O)C(O)C3O)c(=O)c2c1O (stereo not shown) [6-(1,2-propanedione)-8-(1-acetol)-rutin]
Concentration in brain [1, 9]: 0.11 ± 0.02 µg/kg
Concentration in heart [1, 9]: 0.09 ± 0.03 µg/kg
Concentration in ileum [1, 9]: trace
Concentration in kidney [1, 9]: 0.07 ± 0.01 µg/kg
Concentration in liver [1, 9]: trace
Concentration in feces [1]: 1.54 ± 0.49 µg/kg
Concentration in urine [1]: trace
Plasma concentration of oxidized rutin-MGO adducts [2]: 2.38 ng/mL

CC(=O)C(=O)c1c(O)c(C(O)C(C)=O)c(O)c2c(=O)c(O[C@@H]3O[C@H](CO[C@@H]4O[C@@H](C)[C@H](O)[C@@H](O)[C@H]4O)[C@@H](O)[C@H](O)[C@H]3O)c(-c3ccc(O)c(O)c3)oc12 (stereo partly shown) [6-(1-acetol)-8-(1,2-propanedione)-rutin]
Concentration in brain [1, 9]: 0.45 ± 0.28 µg/kg
Concentration in colon [1, 9]: trace
Concentration in heart [1, 9]: trace
Concentration in ileum [1, 9]: trace
Concentration in kidney [1, 9]: 0.12 ± 0.02 µg/kg
Concentration in liver [1, 9]: trace
Concentration in stomach [1, 9]: trace
Concentration in feces [1]: 2.23 ± 0.54 µg/kg
Concentration in urine [1]: 0.09 ng/mL and 0.09 ± 0.00 ng/mL
Plasma concentration of oxidized rutin-MGO adducts [2]: 1.61 ng/mL

CC(=O)C(O)c1c(O)c(C(O)C(C)=O)c2oc(-c3ccc(O)c(O)c3)c(O[C@@H]3O[C@H](CO[C@@H]4O[C@@H](C)[C@H](O)[C@@H](O)[C@H]4O)[C@@H](O)[C@H](O)[C@H]3O)c(=O)c2c1O (stereo partly shown) [6-(1-acetol)-8-(1-acetol)-rutin]
Total (maximum) level in plasma, sum of adducts A and B ([3]; 15 min after oral rutin 100 mg/kg BW): 15.80 µg/L

O=C(O[C@@H]1Cc2c(O)cc(O)cc2O[C@@H]1c1cc(O)c(O)c(O)c1)c1cc(O)c(O)c(O)c1 [(–)-epigallocatechin gallate]
Elimination rate on MGO (MGO scavenged) [4]: 99%

CC(=O)C(O)c1c(O)c(C(O)C(C)=O)c2oc(-c3ccc(O)c(O)c3)c(OC3OC(COC4OC(C)C(O)C(O)C4O)C(O)C(O)C3O)c(=O)c2c1O (stereo not shown) [Adduct A, 6-(1-acetol)-8-(1-acetol)-rutin]
concentration at 0.25 h ([3]; male, Sprague-Dawley, rat, plasma, oral, rutin 100 mg/kg BW oral gavage, time point 0.25 h): 9.4 ng/mL
Plasma concentration [3, 10]: 9.40 ± 6.37 ng/mL
Plasma concentration [3, 11]: trace
Plasma concentration [3, 12]: trace
Plasma concentration ([3]; rutin 100 mg/kg BW oral gavage, time point 10.00 h): trace
Concentration in kidney [1, 9]: trace
Concentration in feces [1]: Trace
Reduction of cell viability (cells dead) ([5]; GES-1, 1 mM): 27%
Reduction of cell viability (cells dead) [6]: 19%
Reduction of cell viability (cells dead) [7]: 19%

CC(=O)C(O)c1c(O)c(C(O)C(C)=O)c2oc(-c3ccc(O)c(O)c3)c(OC3OC(COC4OC(C)C(O)C(O)C4O)C(O)C(O)C3O)c(=O)c2c1O (stereo not shown) [Adduct B, 6-(1-acetol)-8-(1-acetol)-rutin]
Plasma concentration [3, 10]: 6.40 ng/mL and 6.40 ± 3.90 ng/mL
Plasma concentration [3, 11]: trace
Plasma concentration [3, 12]: trace
Plasma concentration ([3]; rutin 100 mg/kg BW oral gavage, time point 8.00 h): trace
Plasma concentration ([3]; rutin 100 mg/kg BW oral gavage, time point 24.00 h): trace
Concentration in kidney [1, 9]: trace
Concentration in feces [1]: Trace
Reduction of cell viability (cells dead) ([5]; GES-1, 1 mM): 25%
Reduction of cell viability (cells dead) [6]: 18%
Reduction of cell viability (cells dead) [7]: 16%

CC(=O)C=O [MGO, Methylglyoxal]
Growth of the cells inhibited ([5]; GES-1, 600 μM): more than 50%
Cells left alive ([5]; GES-1, 1 mM): 17%
Growth of the cells inhibited ([5]; GES-1, 200–400 μM): 18–19%

O=c1cc(-c2ccc(O)cc2)oc2cc(O)cc(O)c12 [apigenin]
Elimination rate on MGO (MGO scavenged) [4]: 40%

Oc1cc(O)c2c(c1)O[C@H](c1ccc(O)c(O)c1)[C@H](O)C2 [epicatechin]
Elimination rate on MGO (MGO scavenged) [4]: 99%

COc1ccc([C@@H]2CC(=O)c3c(O)cc(O)cc3O2)cc1O [hesperetin]
Elimination rate on MGO (MGO scavenged) [4]: 63%

O=C(CCc1ccc(O)cc1)c1c(O)cc(O)cc1O [phloretin]
Elimination rate on MGO (MGO scavenged) [4]: 99%

C[C@@H]1O[C@@H](OC[C@H]2O[C@@H](Oc3c(-c4ccc(O)c(O)c4)oc4cc(O)cc(O)c4c3=O)[C@H](O)[C@@H](O)[C@@H]2O)[C@H](O)[C@H](O)[C@H]1O [rutin, quercetin-3-O-rutinoside]
Reduction of cell viability (cells dead) ([5]; GES-1, 1 mM): 16%
Reduction of cell viability (cells dead) [6]: 15%
Reduction of cell viability (cells dead) [7]: 12%
MGO eliminated ([4]; rutin 0.5 mM with MGO 0.5 mM, 37 °C, 24 h, simulated physiological condition): 50%
Inhibitory effect on the formation of AGEs in glycation reaction (AGEs): more than 90%
Time at which plasma concentration reached maximum [8]: 60 min
